Values after ≈ are worked out from the molar mass of the structure shown. Active and inactive are the calls of the source. No cut-off for these calls is given here. Where a SMILES comes first, the peptide text is derived from it. [ ]: non-standard residue; d: D form. N(tridecyl)Gly = CCCCCCCCCCCCCNCC(=O)O; Gly(N-2-aminoethyl) = NCCNCC(=O)O; Gly(N-cHex) = O=C(O)CNC1CCCCC1; Nlys = NCCCCNCC(=O)O; Sar = CNCC(=O)O
Tests used:
[1] = system: Cryptococcus neoformans; assay: Antifungal activity against Cryptococcus neoformans H99S assessed as inhibition of fungal growth measured after 72 hrs by Plate reader assay; assay type: functional
[2] = Selectivity ratio of TD50 for human HepG2 cells to MIC for Cryptococcus neoformans H99S; assay type: toxicity
[3] = Cytotoxicity against human HepG2 cells assessed as cell death measured after 72 hrs by MTT assay; assay type: cell-based; details: read-out: TD50
[4] = system: Cryptococcus neoformans; assay: Antifungal activity against Cryptococcus neoformans assessed as assessed as half life for fungal killing; assay type: functional, organism-based
[5] = Cytotoxicity against mouse 3T3 cells assessed as cell death measured after 72 hrs by MTT assay; assay type: cell-based; details: read-out: TD50
[6] = system: Cryptococcus neoformans; assay: Indifferent antifungal activity against Cryptococcus neoformans H99S assessed as fractional inhibitory concentration index incubated for 72 hrs in presence of 0.5 to 32 ug/ml fluconazole by checkerboard microdilution assay; assay type: functional
[7] = Protein binding in human serum at 100 ug/ml measured after 24 hrs by RP-HPLC method; assay type: ADME, cell-free; details: at 100 µg/mL
[8] = Antifungal activity against Cryptococcus gattii R272 ATCC MYA-4094 assessed as inhibition of fungal growth measured after 72 hrs by Plate reader assay; assay type: functional, Cryptococcus gattii VGI
[9] = system: Cryptococcus neoformans; assay: Indifferent antifungal activity against Cryptococcus neoformans H99S assessed as fractional inhibitory concentration index incubated for 72 hrs in presence of 0.25 to 16 ug/ml flucytosine by checkerboard microdilution assay; assay type: functional
[10] = Cytotoxicity against human HPL1A cells assessed as cell death measured after 72 hrs by MTT assay; assay type: cell-based; details: read-out: TD50
[11] = system: Cryptococcus neoformans; assay: Antifungal activity against Cryptococcus neoformans H99S assessed as half life for fungal killing at 12.5 ug/ml by Plate reader assay; assay type: functional, organism-based; details: dose 12.5 µg/ml
[12] = system: Mycolicibacterium smegmatis; assay: Antibacterial activity against Mycobacterium smegmatis assessed as inhibition of bacterial growth measured after 72 hrs by Plate reader method; assay type: functional
[13] = system: Cryptococcus neoformans; assay: Antifungal activity against Cryptococcus neoformans H99S assessed as elimination of viable cells at 12.5 ug/ml measured after 1 hr by Plate reader assay; assay type: functional; details: dose 12.5 µg/ml
[14] = system: Klebsiella pneumoniae; assay: Antibacterial activity against Klebsiella pneumoniae ATCC 13883 assessed as inhibition of bacterial growth measured after 24 hrs by Plate reader method; assay type: functional
[15] = Selectivity ratio of TD50 for human HPL1A cells to MIC for Cryptococcus neoformans H99S; assay type: toxicity
[16] = system: Lipid bilayer; assay: Induction of membrane disruption in calcein loaded PC:PE:PS:Ergosterol (4:2:1:0.1) liposomes mimicking Cryptococcus neoformans H99S membrane assessed as increase in fluorescence intensity measured after 1 hr by liposome assay
[17] = system: Enterococcus faecium; assay: Antibacterial activity against Enterococcus faecium ATCC 6569 assessed as inhibition of bacterial growth measured after 24 hrs by Plate reader method; assay type: functional
[18] = system: Acinetobacter baumannii; assay: Antibacterial activity against Acinetobacter baumannii ATCC 19606 assessed as inhibition of bacterial growth measured after 24 hrs by Plate reader method; assay type: functional; details: ATCC 19606 = CIP 70.34 = JCM 6841
[19] = Selectivity ratio of MIC for Cryptococcus gattii R265 ATCC MYA-4093 to MIC for Cryptococcus neoformans H99S measured after 72 hrs by Plate reader assay; assay type: functional
[20] = Selectivity ratio of HC10 for human RBC to MIC for Cryptococcus neoformans H99S; assay type: toxicity; details: red blood cells (RBC)
[21] = system: Escherichia coli; assay: Antibacterial activity against Escherichia coli ATCC 25922 assessed as inhibition of bacterial growth measured after 24 hrs by Plate reader method; assay type: functional
[22] = system: Cryptococcus neoformans; assay: […] antifungal activity against Cryptococcus neoformans H99S assessed as fractional inhibitory concentration index incubated for 72 hrs in presence of 0.03 to 2 ug/ml Amphotericin B by checkerboard microdilution assay; assay type: functional
[23] = system: Cryptococcus neoformans; assay: Fungicidal activity against Cryptococcus neoformans H99S assessed as fungal killing at 12.5 ug/ml measured after drug wash-out; assay type: functional, organism-based; details: dose 12.5 µg/ml
[24] = Selectivity ratio of MIC for Cryptococcus gattii R272 ATCC MYA-4094 to MIC for Cryptococcus neoformans H99S measured after 72 hrs by Plate reader assay; assay type: functional
[25] = Selectivity ratio of TD50 for human HaCaT cells to MIC for Cryptococcus neoformans H99S; assay type: toxicity
[26] = system: Candida albicans; assay: Antifungal activity against Candida albicans ATCC10231 assessed as inhibition of fungal growth measured after 24 hrs by Plate reader assay; assay type: functional
[27] = Selectivity ratio of TD50 for mouse 3T3 cells to MIC for Cryptococcus neoformans H99S; assay type: toxicity
[28] = system: Pseudomonas aeruginosa; assay: Antibacterial activity against Pseudomonas aeruginosa ATCC 25619 assessed as inhibition of bacterial growth measured after 24 hrs by Plate reader method; assay type: functional
[29] = Cytotoxicity against human HaCaT cells assessed as cell death measured after 72 hrs by MTT assay; assay type: cell-based; details: read-out: TD50
[30] = system: Cryptococcus neoformans; assay: Antifungal activity against Cryptococcus neoformans H99S assessed as dead cells at 12.5 ug/ml measured after 30 mins by time-to-kill assay; assay type: functional; details: dose 12.5 µg/ml, 0.5 h
[31] = system: Cryptococcus neoformans; assay: Antifungal activity against Cryptococcus neoformans H99S assessed as inhibition of fungal growth preincubated with human serum for 1 hr followed by incubation with fungus and measured after 72 hrs by Plate reader method; assay type: functional; details: time 73 hrs
[32] = system: Enterococcus faecalis; assay: Antibacterial activity against Enterococcus faecalis ATCC 29212 assessed as inhibition of bacterial growth measured after 24 hrs by Plate reader method; assay type: functional
[33] = system: Erythrocyte; assay: Hemolytic activity in human RBC measured after 1 hr by microplate reader method; assay type: ADME, cell-based
[34] = system: Candida albicans; assay: Antifungal activity against Candida albicans ATCC10231 assessed as inhibition of biofilm formation measured after 24 hrs by fluorescence based plate reader assay; assay type: functional
[35] = system: Staphylococcus aureus; assay: Antibacterial activity against Staphylococcus aureus ATCC 29213 assessed as inhibition of bacterial growth measured after 24 hrs by Plate reader method; assay type: functional
[36] = Stability of compound assessed as trypsin-mediated compound degradation at 2 mg/ml measured after 24 hrs by RP-HPLC method; assay type: ADME; details: isolated protein
[37] = Antifungal activity against Cryptococcus gattii R265 ATCC MYA-4093 assessed as inhibition of fungal growth measured after 72 hrs by Plate reader assay; assay type: functional, Cryptococcus gattii VGI

**Q.** With CCCCCCCCCCCCCNCC(=O)N(CC(=O)N(C)CC(=O)N(CCN)CC(=O)N(CC(N)=O)C1CCCCC1)C1CCCCC1 as the compound, how does the MIC [1] read?
**A.** 3.13 µg/mL (≈ 4.43 µM)

**Q.** What about the selectivity ratio [2] of the same compound?
**A.** 27

**Q.** And the CC50 at 72 h [3]?
**A.** 83 µg/mL (≈ 118 µM)

**Q.** With CCCCCCCCCCCCCNCC(=O)N(CCCCN)CC(=O)N(CC(N)=O)Cc1ccco1 as the compound, how does the T1/2 [4] read?
**A.** 30 min

**Q.** Which CC50 at 72 h [5] does the source give for CCCCCCCCCCCCCNCC(=O)N(CC(=O)N(CCCCN)CC(=O)N(CCN)CC(=O)N(CC(N)=O)C1CCCCC1)C1CCCCC1 (H-[N(tridecyl)Gly][Gly(N-cHex)][Nlys][Gly(N-2-aminoethyl)][Gly(N-cHex)]-NH2) here?
**A.** 59 µg/mL (≈ 77.3 µM)

**Q.** What about the “fractional inhibitory concentration index (FICI)” value [6] of the same compound?
**A.** 2

**Q.** And the PB [7]?
**A.** Not Active

**Q.** And the MIC [8]?
**A.** 3.13 µg/mL (≈ 4.1 µM)

**Q.** What about the “fractional inhibitory concentration index (FICI)” value [9] of the same compound?
**A.** 2

**Q.** What about the CC50 at 72 h [10] of the same compound?
**A.** 74 µg/mL (≈ 97 µM)

**Q.** What about the MIC [1] of the same compound?
**A.** 1.56 µg/mL (≈ 2.04 µM)

**Q.** What about the T1/2 [11] of the same compound?
**A.** 6.5 min

**Q.** What about the MIC [12] of the same compound?
**A.** 3.13 µg/mL (≈ 4.1 µM)

**Q.** What about the Activity [13] of the same compound?
**A.** 100%

**Q.** What about the selectivity ratio [2] of the same compound?
**A.** 120

**Q.** And the MIC [14]?
**A.** 100 µg/mL (≈ 131 µM)

**Q.** What about the selectivity ratio [15] of the same compound?
**A.** 47

**Q.** What about the Activity [16] of the same compound?
**A.** Active

**Q.** What about the MIC [17] of the same compound?
**A.** 6.25 µg/mL (≈ 8.19 µM)

**Q.** What about the MIC [18] of the same compound?
**A.** 25 µg/mL (≈ 32.8 µM)

**Q.** What about the Selectivity ratio [19] of the same compound?
**A.** 2

**Q.** And the selectivity ratio [20]?
**A.** 49

**Q.** And the MIC [21]?
**A.** 12.5 µg/mL (≈ 16.4 µM)

**Q.** And the “fractional inhibitory concentration index (FICI)” value [22]?
**A.** 0.75

**Q.** What about the Activity [23] of the same compound?
**A.** Active

**Q.** What about the Selectivity ratio [24] of the same compound?
**A.** 2

**Q.** And the selectivity ratio [25]?
**A.** 35

**Q.** What about the MIC [26] of the same compound?
**A.** 25 µg/mL (≈ 32.8 µM)

**Q.** What about the selectivity ratio [27] of the same compound?
**A.** 38

**Q.** And the MIC [28]?
**A.** 100 µg/mL (≈ 131 µM)

**Q.** And the CC50 at 72 h [29]?
**A.** 54 µg/mL (≈ 70.8 µM)

**Q.** What about the CC50 at 72 h [3] of the same compound?
**A.** 189 µg/mL (≈ 248 µM)

**Q.** And the Activity [30]?
**A.** >50%

**Q.** What about the MIC [31] of the same compound?
**A.** 3.13 µg/mL (≈ 4.1 µM)

**Q.** And the MIC [32]?
**A.** 6.25 µg/mL (≈ 8.19 µM)

**Q.** What about the HC10 [33] of the same compound?
**A.** 77 µg/mL

**Q.** And the MIC [34]?
**A.** 100 µg/mL (≈ 131 µM)

**Q.** And the MIC [35]?
**A.** 6.25 µg/mL (≈ 8.19 µM)

**Q.** What about the Stabilty [36] of the same compound?
**A.** Stable

**Q.** And the MIC [37]?
**A.** 3.13 µg/mL (≈ 4.1 µM)

**Q.** For CCCCCCCCCCCCCNCC(=O)N(CC(=O)N(CCCCN)CC(=O)N(CCN)CC(=O)N(C)CC(N)=O)C1CCCCC1 (H-[N(tridecyl)Gly][Gly(N-cHex)][Nlys][Gly(N-2-aminoethyl)][Sar]-NH2), which MIC [1] is on record?
**A.** 6.25 µg/mL (≈ 8.99 µM)

**Q.** What about the CC50 at 72 h [3] of the same compound?
**A.** > 200 µg/mL

**Q.** Which results are given for CCCCCCCCCCCCCNCC(=O)N(CC(=O)N(CCCCN)CC(=O)N(C)CC(=O)N(CC(N)=O)C1CCCCC1)C1CCCCC1 (H-[N(tridecyl)Gly][Gly(N-cHex)][Nlys][Sar][Gly(N-cHex)]-NH2)?
**A.** MIC [1]: 3.13 µg/mL (≈ 4.26 µM); selectivity ratio [2]: 27; CC50 at 72 h [3]: 84 µg/mL (≈ 114 µM)

**Q.** For CCCCCCCCCCCCCNCC(=O)N(C)CC(=O)N(CCCCN)CC(=O)N(CCN)CC(=O)N(CC(N)=O)C1CCCCC1 (H-[N(tridecyl)Gly][Sar][Nlys][Gly(N-2-aminoethyl)][Gly(N-cHex)]-NH2), which MIC [1] is on record?
**A.** 6.25 µg/mL (≈ 8.99 µM)

**Q.** What about the CC50 at 72 h [3] of the same compound?
**A.** > 200 µg/mL

**Q.** For CNCC(=O)N(CC(=O)N(CCCCN)CC(=O)N(CCN)CC(=O)N(CC(N)=O)C1CCCCC1)C1CCCCC1 (H-[Sar][Gly(N-cHex)][Nlys][Gly(N-2-aminoethyl)][Gly(N-cHex)]-NH2), which MIC [1] is on record?
**A.** > 50 µg/mL

**Q.** And the CC50 at 72 h [3]?
**A.** > 200 µg/mL

**Q.** Which results are given for C[C@@H]1[C@H](O)[C@@H](C)/C=C/C=C/C=C/C=C/C=C/C=C/C=C/[C@H](O[C@@H]2O[C@H](C)[C@@H](O)[C@H](N)[C@@H]2O)C[C@@H]2O[C@](O)(C[C@@H](O)C[C@@H](O)[C@H](O)CC[C@@H](O)C[C@@H](O)CC(=O)O[C@H]1C)C[C@H](O)[C@H]2C(=O)O [AMPHOTERICIN B]?
**A.** T1/2 [4]: 240 min; MIC [1]: 0.25 µg/mL (≈ 0.271 µM)

**Q.** With OC(Cn1cncn1)(Cn1cncn1)c1ccc(F)cc1F [FLUCONAZOLE] as the compound, how does the MIC [1] read?
**A.** 2 µg/mL (≈ 6.53 µM)

**Q.** With Nc1nc(=O)[nH]cc1F [FLUCYTOSINE] as the compound, how does the MIC [1] read?
**A.** 2 µg/mL (≈ 15.5 µM)
